Drawing on BindingDB's records for doi:10.1016/0014-2999(93)90722-t (Sanofi Recherche, 1993), this text covers Ki for four compounds.

“And” between values parts separate entries of the source, which are not always exact repeats. Equal values may be shown once. Where a SMILES comes first, the peptide text is derived from it. [ ]: non-standard residue; d: D form. sY = N[C@@H](Cc1ccc(OS(=O)(=O)O)cc1)C(=O)O

Assay [1] concerns the target T1, Gastrin/cholecystokinin type B receptor (Rattus norvegicus, UniProt P30553).
T1 sequence (P30553 whole entry): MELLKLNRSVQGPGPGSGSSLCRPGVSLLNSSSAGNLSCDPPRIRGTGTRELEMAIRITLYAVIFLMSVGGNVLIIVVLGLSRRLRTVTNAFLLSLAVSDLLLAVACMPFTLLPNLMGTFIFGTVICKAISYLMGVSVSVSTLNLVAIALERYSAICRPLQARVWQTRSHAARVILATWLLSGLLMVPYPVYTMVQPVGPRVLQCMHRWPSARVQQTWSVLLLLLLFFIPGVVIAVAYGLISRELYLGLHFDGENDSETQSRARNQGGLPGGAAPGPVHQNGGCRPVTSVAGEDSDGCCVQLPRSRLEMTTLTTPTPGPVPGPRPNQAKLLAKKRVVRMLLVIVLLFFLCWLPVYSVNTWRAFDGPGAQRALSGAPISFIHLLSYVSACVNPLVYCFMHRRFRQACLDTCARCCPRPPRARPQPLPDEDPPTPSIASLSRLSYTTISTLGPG

As a reminder, the Ki is a dissociation constant, usually derived from enzyme kinetics or from competition with a known ligand. Low values mean a stronger hold on the target, high ones a looser hold on the target. Regarding `CN1C(=O)[C@@H](NC(=O)c2cc3ccccc3[nH]2)N=C(c2ccccc2)c2ccccc21` [1H-Indole-2-carboxylic acid (1-methyl-2-oxo-5-phenyl-2,3-dihydro-1H-benzo[e][1,4]diazepin-3-yl)-amide: 0.1C4H10O. 0.15CH2Cl2], the Ki was 275 nM and 195 nM.

For the compound `O=C(O)Cn1c(C(=O)Nc2nc(-c3ccccc3Cl)cs2)cc2ccccc21` [CAS_122077], the Ki is 489 nM and 2880 nM. The inhibition constant Ki in assay [1] was determined as 0.58 nM.

As for `CC[C@H](C)[C@H](NC(=O)[C@H](CCCNC(=N)N)NC(=O)[C@H](Cc1c[nH]cn1)NC(=O)[C@H](CO)NC(=O)[C@@H]1CCCN1C(=O)[C@H](CC(=O)O)NC(=O)[C@H](CC(C)C)NC(=O)[C@H](CC(N)=O)NC(=O)[C@H](CCC(N)=O)NC(=O)[C@H](CC(C)C)NC(=O)[C@H](CC(N)=O)NC(=O)[C@H](CCCCN)NC(=O)[C@@H](NC(=O)[C@@H](NC(=O)[C@H](CO)NC(=O)[C@H](CCSC)NC(=O)[C@H](CCCNC(=N)N)NC(=O)CNC(=O)[C@H](CO)NC(=O)[C@@H]1CCCN1C(=O)[C@H](C)NC(=O)[C@@H](N)CCCCN)[C@@H](C)CC)C(C)C)C(=O)N[C@@H](CO)C(=O)N[C@@H](CC(=O)O)C(=O)N[C@@H](CCCNC(=N)N)C(=O)N[C@@H](CC(=O)O)C(=O)N[C@@H](Cc1ccc(OS(=O)(=O)O)cc1)C(=O)N[C@@H](CCSC)C(=O)NCC(=O)N[C@@H](Cc1c[nH]c2ccccc12)C(=O)N[C@@H](CCSC)C(=O)N[C@@H](CC(=O)O)C(=O)N[C@@H](Cc1ccccc1)C(N)=O` [CHOLECYSTOKININ] (H-KAPSGRMSIVKNLQNLDPSHRISDRD[sY]MGWMDF-NH2), the Ki was determined as 0.62 nM.

As to `CSCC[C@H](NC(=O)[C@H](CC(C)C)NC(=O)[C@H](Cc1cnc[nH]1)NC(=O)CNC(=O)[C@@H](NC(=O)[C@H](C)NC(=O)[C@H](Cc1c[nH]c2ccccc12)NC(=O)[C@H](Cc1cnc[nH]1)NC(=O)[C@H](CC(N)=O)NC(=O)CN)C(C)C)C(N)=O` [NSC_5486814], the affinity corresponds to a Ki of 24 nM.
